The results in this text go back to patent US8765773B2, “Substituted hydroxamic acids and uses thereof” (Millennium Pharmaceuticals, Inc., priority 2010, dated 2014).

What is called inhibition is the drop in the measured response relative to a control, in per cent.

The first assay deals with T1, purified human HDAC6 (Homo sapiens, UniProt Q9UBN7).
T1 construct: purchased BPS Bioscience 5006
T1 sequence (Q9UBN7 1-1215): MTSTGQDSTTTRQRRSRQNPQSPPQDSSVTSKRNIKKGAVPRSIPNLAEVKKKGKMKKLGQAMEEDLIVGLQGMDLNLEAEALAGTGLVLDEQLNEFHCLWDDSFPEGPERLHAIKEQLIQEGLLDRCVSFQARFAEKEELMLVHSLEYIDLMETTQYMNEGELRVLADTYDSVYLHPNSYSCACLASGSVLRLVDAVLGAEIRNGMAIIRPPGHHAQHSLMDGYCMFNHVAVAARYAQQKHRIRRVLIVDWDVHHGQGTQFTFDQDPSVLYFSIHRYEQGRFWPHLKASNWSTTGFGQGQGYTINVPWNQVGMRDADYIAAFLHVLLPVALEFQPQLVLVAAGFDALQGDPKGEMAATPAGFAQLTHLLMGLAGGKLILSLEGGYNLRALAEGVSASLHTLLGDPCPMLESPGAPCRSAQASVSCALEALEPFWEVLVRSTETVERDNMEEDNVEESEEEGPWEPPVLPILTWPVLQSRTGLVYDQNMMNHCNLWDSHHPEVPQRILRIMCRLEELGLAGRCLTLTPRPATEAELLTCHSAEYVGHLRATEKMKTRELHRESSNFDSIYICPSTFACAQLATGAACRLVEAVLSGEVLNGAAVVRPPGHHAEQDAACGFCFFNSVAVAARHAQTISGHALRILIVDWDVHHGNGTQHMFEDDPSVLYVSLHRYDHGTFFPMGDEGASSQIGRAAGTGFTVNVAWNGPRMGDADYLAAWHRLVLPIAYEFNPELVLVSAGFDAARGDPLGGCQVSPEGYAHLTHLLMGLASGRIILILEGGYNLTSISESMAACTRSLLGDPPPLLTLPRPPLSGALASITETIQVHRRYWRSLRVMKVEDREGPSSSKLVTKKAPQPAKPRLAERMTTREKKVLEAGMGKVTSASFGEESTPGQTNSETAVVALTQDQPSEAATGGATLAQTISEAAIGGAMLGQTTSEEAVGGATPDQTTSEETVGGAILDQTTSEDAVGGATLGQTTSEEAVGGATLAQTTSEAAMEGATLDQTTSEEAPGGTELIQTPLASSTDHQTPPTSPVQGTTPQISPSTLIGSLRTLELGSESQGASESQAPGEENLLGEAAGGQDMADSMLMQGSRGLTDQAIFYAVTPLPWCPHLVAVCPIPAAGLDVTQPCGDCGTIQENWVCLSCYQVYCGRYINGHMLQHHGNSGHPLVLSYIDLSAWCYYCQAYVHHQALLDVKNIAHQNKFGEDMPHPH
Briefly: HDAC6 Enzyme Assay. The class given is biochemical. The settings on record: compound concentration 0.37 μM, read-out: Percent Inhibition. In outline:
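Readout is AMC fluorescence (Ex 340 nm, Em 460 nm) after trypsin cleavage of the deacetylated Ac-Arg-Gly-Lys(Ac)-AMC product. Reaction: purified human HDAC6, compound or vehicle, 1 hour, 30° C, quenched by trichostatin A. Single-concentration percent inhibition or IC50 calculated versus DMSO-treated samples.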
With `O=C(NO)c1ccc2ncn(Cc3cccc(N4CCOCC4)c3)c(=O)c2c1` [Compound I-114, N-hydroxy-3-(3-morpholin-4-ylbenzyl)-4-oxo-3,4-dihydroquinazoline-6-carboxamide], the inhibition at 0.37 µM turned out to be 93.8%.

`O=C(NO)c1ccc2ncn(Cc3cccc(-c4ccccc4C(F)(F)F)c3)c(=O)c2c1` [Compound I-124, N-hydroxy-4-oxo-3-{[2′-(trifluoromethyl)biphenyl-3-yl]methyl}-3,4-dihydroquinazoline-6-carboxamide]: the inhibition at 0.37 µM is 91.4%.

The assay is the same for the next values; noted with them: compound concentration 0.412 μM, read-out: Percent Inhibition.
As for `O=C(NO)c1ccc2c(=O)[nH]c(COc3cccc(C(F)(F)F)c3)nc2c1` [Compound I-110, N-hydroxy-4-oxo-2-{[3-(trifluoromethyl)phenoxy]methyl}-3,4-dihydroquinazoline-7-carboxamide], the inhibition at 0.412 µM is 76%. Still for that read-out and setting: the figure for `O=C(NO)c1ccc2ncn(Cc3cccc(F)c3)c(=O)c2c1` [Compound I-111, 3-(3-fluorobenzyl)-N-hydroxy-4-oxo-3,4-dihydroquinazoline-6-carboxamide] is 93.5%. As for `CC1(C)CCC(C)(C)c2cc(Cn3cnc4ccc(C(=O)NO)cc4c3=O)ccc21` [Compound I-112, N-hydroxy-4-oxo-3-[(5,5,8,8-tetramethyl-5,6,7,8-tetrahydronaphthalen-2-yl)methyl]-3,4-dihydroquinazoline-6-carboxamide], the inhibition at 0.412 µM worked out at 95.2%. Same read-out and setting: the figure for `O=C(NO)c1ccc2ccn(CCNc3ccc(Cl)cc3)c(=O)c2c1` [Compound I-113, 2-{2-[(4-chlorophenyl)amino]ethyl}-N-hydroxy-1-oxo-1,2-dihydroisoquinoline-7-carboxamide] is 95.6%; for `O=C(NO)c1ccc2ncn(Cc3ccc(F)cc3)c(=O)c2c1` [Compound I-115, 3-(4-fluorobenzyl)-N-hydroxy-4-oxo-3,4-dihydroquinazoline-6-carboxamide] it is 90.2%; for `O=C(NO)c1ccc2ccn(CCCOc3ccc(OCc4ccccc4)cc3)c(=O)c2c1` [Compound I-116, 2-{3-[4-(benzyloxy)phenoxy]propyl}-N-hydroxy-1-oxo-1,2-dihydroisoquinoline-7-carboxamide] it is 80.2%.

Regarding `O=C(NO)c1ccc2ccn(C3CCCCCC3)c(=O)c2c1` [Compound I-117, 2-cycloheptyl-N-hydroxy-1-oxo-1,2-dihydroisoquinoline-7-carboxamide], the inhibition at 0.412 µM was 93.3%. The same measure, in the same setting: the figure for `O=C(NO)c1ccc2ccn(CCCc3ccncc3)c(=O)c2c1` [Compound I-118, N-hydroxy-1-oxo-2-(3-pyridin-4-ylpropyl)-1,2-dihydroisoquinoline-7-carboxamide] is 93.3%; for `O=C(NO)c1ccc2ccn(Cc3cc(F)cc(F)c3)c(=O)c2c1` [Compound I-119, 2-(3,5-difluorobenzyl)-N-hydroxy-1-oxo-1,2-dihydroisoquinoline-7-carboxamide] it is 95.5%; for `Cc1cccc(Cn2ccc3ccc(C(=O)NO)cc3c2=O)c1` [Compound I-120, N-hydroxy-2-(3-methylbenzyl)-1-oxo-1,2-dihydroisoquinoline-7-carboxamide] it is 94.8%. Still for that read-out and setting: the figure for `CC(C)n1cnc2ccc(C(=O)NO)cc2c1=O` [Compound I-121, N-hydroxy-3-isopropyl-4-oxo-3,4-dihydroquinazoline-6-carboxamide] is 71.9%; for `O=C(NO)c1ccc2ccn(Cc3ccccc3F)c(=O)c2c1` [Compound I-122, 2-(2-fluorobenzyl)-N-hydroxy-1-oxo-1,2-dihydroisoquinoline-7-carboxamide] it is 94.6%; for `O=C(NO)c1ccc2[nH]c(=O)n(-c3ccccc3)c(=O)c2c1` [Compound I-123, N-hydroxy-2,4-dioxo-3-phenyl-1,2,3,4-tetrahydroquinazoline-6-carboxamide] it is 71.7%.
